In patent publication US20070248599A1 (priority 2006, published 2007):

Columns and labels:
[1] = target: LDL (low-density lipoprotein) lipid receptor (Homo sapiens, UniProt P01130); conditions: cited from earlier work
N2a-APPsw cells [2] = assay: Cellular Aβ production in N2a-APPsw cells (Aβ40 ELISA of conditioned medium); type: cell-based, mouse
Protocol: Quantification of β-Amyloid40, Neuro-2a cell stably overexpressing APPsw695 was used for detecting of β-Amyloid40. N2a-APPsw cells were grown in Dulbecco's Modified Eagle's medium (DMED) containing 10% fetal bovine serum, 100 U/mL penicillin, and 100 μg/mL streptomycin (GibcoBUR) with 80 μg/mL G418. Cells were cultured in 24-well plates one day before treatment. Transient transfections were done using FeGENE6 (Roche), fresh Optimum medium (Invitrogen) were supplied 5 h after transfection. Same concentration purified Apolipoprotein was added into the fresh medium. Conditioned medium was collected 24 h later. Aβ40 was quantified with sandwich ELISA by using Aβ40 ELISA Kit (Biosource). At least three times assays were done for each condition.
Cellular Aβ40 production. Neuroblastoma N2a-APPsw cells (from Dr. Riqiang Yan, Lerner Research Institute, Cleveland, Ohio) were cultured in 24-well plates in Dulbecco's Modified Eagle's medium (DMED) containing 10% fetal bovine serum, 100 U/mL penicillin, and 100 μg/mL streptomycin (GibcoBUR) with 80 μg/mL G418 one day before use. Transient transfections were done using FeGENE6 (Roche), fresh Optimum medium (Invitrogen) were supplied 5 h after transfection. Apolipoproteins were added in the fresh medium at 10 μg/mL. Conditioned medium was collected 24 h later. Aβ40 was determined in tripcates using Aβ40 ELISA Kit (Biosource). For studying the effect of PTB domain on Aβ production, N2a-APPsw cells were transfected with (0.4 μg/per well for 24 well plate) of PTB-containing vector before subjected to the above procedure.

[3] = test system: N2a-APPsw cells transfected with ApoER2 and β-secretase; assay: Internalization of cell surface proteins (biotinylation, Western blot); type: cell-based, mouse; conditions: Western blot of conditioned medium (FIG. 6D)
[4] = test system: N2a-APPsw cells transfected with ApoER2 and β-secretase; assay: as above; type: cell-based, mouse
Protocol: Internalization of cell surface proteins. N2a-APPsw cells were transiently tranfected with ApoER2 and β-secretase with Lipfectamine 2000. […] Cells were then placed on ice, rinsed in cold PBS and incubated in PBS containing 1.5 mg/mL sulfo-NHS-LC-biotin (Pierce) for 20 min at 4° C. Cells were rinsed twice in PBS and lysed in 800 μl PBS containing 0.1% SDS, 1% NP40 and a complete protease inhibitor cocktail. Total protein concentration was determined by immunoblotting from an aliquot of 50 μl cell lysate. Biotinylated proteins were recovered with NeutrAvidin agarose (50 μl; Pierce), rinsed three times, eluted in 20 μl SDS-sample buffer at boiling temperature and used for Western-blot. Quantity of bands was determined by optical scanning instruments specified above. For the determination of internalized proteins, cells were prepared as above, rinsed in PBS and then incubated with cold 1.5 mg/mL cleavable biotin reagent in PBS (EZ-Link Sulfo-NHS-SS biotin, Pierce) for 20 min at 4° C. […] Cells were then lysed in 800 μl PBS containing 0.1% SDS, 1% NP40 and a complete protease inhibitor cocktail. After centrifugation, biotinylated proteins were retrieved by incubation with NeutrAvidin agarose (50 μl; Pierce). Isolated proteins were rinsed in buffer three times and boiled in 20 μl sample buffer for Western blots.

N2a-APPsw cells [5] = assay: Cellular Aβ production in N2a-APPsw cells (Aβ40 ELISA of conditioned medium); type: cell-based, mouse; remark: listed apart in the source
[6] = 10 μg/mL, internalization 15 min at 37° C. (FIG. 6B)

LDL (low-density lipoprotein) lipid receptor, sequence (P01130 22-860): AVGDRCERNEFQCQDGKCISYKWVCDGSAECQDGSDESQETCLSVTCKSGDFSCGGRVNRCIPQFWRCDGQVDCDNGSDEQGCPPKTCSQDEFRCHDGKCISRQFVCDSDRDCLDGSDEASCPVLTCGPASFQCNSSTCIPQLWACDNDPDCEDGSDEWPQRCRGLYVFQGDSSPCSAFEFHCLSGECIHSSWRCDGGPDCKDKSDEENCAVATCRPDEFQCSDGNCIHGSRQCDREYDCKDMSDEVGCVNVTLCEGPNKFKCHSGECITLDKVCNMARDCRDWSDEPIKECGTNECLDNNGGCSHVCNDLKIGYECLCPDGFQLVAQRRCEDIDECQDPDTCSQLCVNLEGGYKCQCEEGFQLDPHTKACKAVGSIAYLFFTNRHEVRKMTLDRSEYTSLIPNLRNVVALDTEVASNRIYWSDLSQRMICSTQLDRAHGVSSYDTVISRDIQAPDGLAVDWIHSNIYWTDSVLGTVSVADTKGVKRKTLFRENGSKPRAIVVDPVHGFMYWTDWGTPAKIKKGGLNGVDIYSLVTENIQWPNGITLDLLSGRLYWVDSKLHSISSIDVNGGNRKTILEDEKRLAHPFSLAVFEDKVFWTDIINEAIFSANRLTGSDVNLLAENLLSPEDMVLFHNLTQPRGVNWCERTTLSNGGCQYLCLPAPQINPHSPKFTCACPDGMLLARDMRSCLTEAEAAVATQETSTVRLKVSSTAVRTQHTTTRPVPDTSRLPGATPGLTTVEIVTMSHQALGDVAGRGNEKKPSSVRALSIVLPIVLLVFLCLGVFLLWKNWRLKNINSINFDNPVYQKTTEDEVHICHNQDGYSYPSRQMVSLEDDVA

Substance: ApoE4: ApoE isoform with arginine substituted for cysteine at residue 112; from Biodesign / Alpha Diagnostic
- normal receptor binding activity [1]: 100%
- Aβ production in cells transfected with ApoER2 versus without (N2a-APPsw cells [2]; N2a-APPsw cells (FIG. 5D)): produced more Aβ
- Aβ40 and Aβ42 production, ApoE4 in native human VLDL versus ApoE2 and ApoE3 (N2a-APPsw cells [2]; VLDL from individual human plasma, N2a-APPsw cells (FIG. 5C)): stimulates higher Aβ production
- Aβ production (N2a-APPsw cells [2]; recombinant ApoE forms at 10 μg/ml, N2a-APPsw cells (FIG. 5B)): increased Aβ production (FIG. 5B) with the highest response
- APP ectodomain generated by ∝-secretase, s∝-APP [3]: reduction
- total amounts of ApoER2, APP and β-secretase in the cell lysates ([4]; 10 μg/mL, 2 h): remained about the same
- decrease of remaining cell-surface β-secretase ([4]; 10 μg/mL, 2 h, compared to controls (FIG. 6A)): ~35%
- increase of intracellular APP [4, 6]: ~4 fold
- increase of intracellular ApoER2 [4, 6]: small increases
- increase of intracellular β-secretase [4, 6]: small increases
- intracellular APP C-terminal fragment C99 ([4]; Western blot, over the control (FIG. 6C)): significantly increased
- Aβ40 increase in cells transfected with ApoER2 versus blank vectors (N2a-APPsw cells [5]; 5 μg/mL, N2a APPsw cells, p<0.05 (FIG. 4)): increase of Aβ40 at a greater extent
- Aβ40 levels in medium (N2a-APPsw cells [5]; 5 μg/mL, blank vector transfected N2a APPsw cells vs control (FIG. 4)): increased over that in the control cells
- Aβ production (N2a-APPsw cells [5]; each at 5 μg/mL, 24 h, N2a-APPsw cells (FIG. 5B legend)): increased Aβ production
